Data published in ChEMBL document CHEMBL5308541, “MAIP: An Open-Source Tool to Enrich High-Throughput Screening Output and Identify Novel, Druglike Molecules with Antimalarial Activity” (ACS Med Chem Lett, 2023).

Legend:
[1] = test system: Plasmodium falciparum; assay: Hit confirmation in dose-response curve in Dd2 pLDH assay, at 72h; format: functional, organism-based, Erythrocyte; parameters: timepoint 72 hour; settings: Plasmodium falciparum, Dd2, Erythrocyte, 72 h
[2] = test system: Plasmodium falciparum; assay: Hit confirmation in dose-response curve in NF54 nanoGlo assay, at 72h; format: functional, organism-based, Erythrocyte; parameters: timepoint 72 hour; settings: Plasmodium falciparum, NF54, Erythrocyte, 72 h
[3] = Hit confirmation in dose-response curve in HepG2 cytotoxicity assay, at 72h; format: toxicity, cell-based, Homo sapiens; parameters: timepoint 72 hour; settings: human, HepG2 cells
[4] = test system: Plasmodium falciparum; assay: Hit confirmation in dose-response curve in NF54 pLDH assay, at 72h; format: functional, organism-based, Erythrocyte; parameters: timepoint 72 hour; settings: Plasmodium falciparum, NF54, Erythrocyte, 72 h
[5] = test system: Plasmodium falciparum; assay: Hit confirmation in dose-response curve in NF54 nanoGlo assay, at 12h; format: functional, organism-based, Erythrocyte; parameters: timepoint 12 hour; settings: Plasmodium falciparum, NF54, Erythrocyte, 12 h

Structure (SMILES) | IC50 [1] | IC50 [2] | IC50 [4] | IC50 [5] | IC50 at 72 h [3]
O[C@@H](CNCc1cc2cc(Cl)c(Cl)cc2[nH]1)c1ccc(F)cc1 | 3.39 µM | 2.34 µM | 8.51 µM | 5.01 µM | > 10 µM
Cc1noc(-c2ccnc(NC[C@@H](c3ccccn3)N3CCOCC3)c2)n1 | 3.02 µM | 1.58 µM | 3.98 µM | > 10 µM | > 10 µM
CCN1CCN(c2ccc(CNCc3cccc(O)c3)cc2F)CC1 | 3.89 µM | 1.95 µM | 3.39 µM | 8.91 µM | > 10 µM
Cc1sc2nc(-c3ccccn3)nc(NCCc3nccn3C)c2c1-c1ccccc1 | 3.55 µM | 3.24 µM | 8.71 µM | 8.91 µM | 8.32 µM
Cn1cncc1[C@@H]1CNC[C@H]1CNC(=O)c1ccccc1NC1CCCCC1 | 4.17 µM | 3.89 µM | 6.76 µM | 8.13 µM | > 10 µM
FC(F)(F)c1ccc(-c2c(-c3ccccc3)ncn2Cc2ncn[nH]2)cc1 | > 10 µM | 6.92 µM | > 10 µM | 2.75 µM | > 10 µM
COc1ccc2[nH]cc(C3=CCN(c4ccc5nnc(-c6ccccc6F)n5n4)CC3)c2c1 | > 10 µM | 2.69 µM | 8.71 µM | > 10 µM | > 10 µM
c1ccc(CCC23CN(Cc4ccccn4)CC2CN(Cc2ccns2)C3)cc1 (stereo not given) | 4.17 µM | 1.45 µM | 3.55 µM | 6.46 µM | > 10 µM
Cc1ccc2[nH]cc(-c3cc(N4CCOCC4)nc(N)n3)c2c1 | 7.08 µM | 5.62 µM | 7.59 µM | 9.77 µM | > 10 µM
CN(C)Cc1cccc(CCNCc2csc(-c3ccc(C(F)(F)F)cc3)n2)c1 | 2.69 µM | 2.63 µM | 3.47 µM | 4.79 µM | 7.76 µM
NCCCCc1c(-c2cccnc2)[nH]c2c(Cl)cc(Cl)cc12 | 4.07 µM | 4.47 µM | 4.47 µM | 6.92 µM | 9.55 µM
COC(=O)c1cn(CCNc2ccnc3cc(Cl)ccc23)cc2c(O)nnc1-2 | 0.955 µM | 0.603 µM | 1.29 µM | 3.09 µM | > 10 µM
CCNc1nc(C)cc(Nc2ccc(NC(=O)Nc3ccc(F)cc3F)cc2)n1 | 0.269 µM | 0.263 µM | 0.389 µM | 0.562 µM | 2.63 µM
CCc1oc2ccccc2c1CNC[C@H](O)c1ccc(Cl)cc1 | 0.955 µM | 0.513 µM | 0.977 µM | 0.776 µM | > 10 µM
Cc1ccc(CNc2ncnc(N)c2Cl)c(N2CCCC2)n1 | > 10 µM | 2.45 µM | > 10 µM | 1.07 µM | > 10 µM
Cc1nc(N2CCN(C)CC2)cc(N2CCN(S(=O)(=O)c3ccccc3C(F)(F)F)CC2)n1 | 4.37 µM | 1.23 µM | 6.61 µM | 0.977 µM | > 10 µM
Cc1cc(NC[C@H](O)COc2ccc(F)cc2)nc2ccccc12 | 4.07 µM | 2.19 µM | 6.92 µM | 4.17 µM | > 10 µM
CCN1CCC[C@H](Nc2cccc(-n3ccnc3)n2)C1 | 3.8 µM | 3.63 µM | 4.37 µM | 7.08 µM | > 10 µM
CN(Cc1cn(CC(N)=O)c2ccccc12)CC1CCN(CCc2ccc(F)cc2)CC1 | 4.37 µM | 4.07 µM | 4.17 µM | 7.41 µM | > 10 µM
Cc1ccc2c(-c3ccccc3CN3CCNCC3)cccc2n1 | > 10 µM | 7.24 µM | > 10 µM | > 10 µM | > 10 µM
O[C@H]1CCN(Cc2cccc(NCc3cn4ccnc4s3)c2)C1 | 3.8 µM | 3.89 µM | 4.17 µM | 10 µM | > 10 µM
Oc1cccc2c1CCC[C@@H]2NCc1ccc2occc2c1 | 8.51 µM | 4.07 µM | 9.33 µM | 4.57 µM | > 10 µM
Oc1ccc(C2=CCN(Cc3cccc4[nH]ccc34)CC2)cc1 | 5.75 µM | 7.24 µM | 10 µM | > 10 µM | > 10 µM
CNc1nc(C)c(-c2ccnc(Nc3cccc(S(C)(=O)=O)c3)n2)s1 | 6.46 µM | 2.82 µM | > 10 µM | > 10 µM | 0.78 µM
COc1ccc(-c2cc(-c3ccccc3O)n([C@@H]3C(=O)Nc4ccc(Br)cc43)n2)cc1 | 8.71 µM | 4.07 µM | 8.71 µM | 4.9 µM | > 10 µM
Cc1ccc2[nH]c(-c3cc4n(n3)CCN(c3ccnc(N)n3)C4)nc2c1C | 2.63 µM | 1.78 µM | 2.63 µM | 3.63 µM | > 10 µM

Continued, in another order:

IC50 [1] | IC50 [2] | IC50 [4] | IC50 [5] | Structure (SMILES) | IC50 at 72 h [3]
2.69 µM | 1.78 µM | 2.69 µM | 4.68 µM | N#Cc1ccc(N2C[C@H](COCC3CC3)C3(CCN(Cc4cccc(O)c4)CC3)C2)cc1C(F)(F)F | > 10 µM
2 µM | 1.95 µM | 2.45 µM | 3.55 µM | CCOc1ccc2nc(CN(CC)CC3CCN(C4CCN(C)CC4)CC3)ccc2c1 | > 10 µM
3.16 µM | 3.47 µM | 3.72 µM | 5.25 µM | Clc1cccc(N2CC[C@H](CNC3CCN(Cc4ccco4)CC3)C2)c1 | > 10 µM
5.37 µM | 3.72 µM | 5.25 µM | > 10 µM | Cc1ccn2cc(-c3ccc(N4CCC(NCc5cccnc5)CC4)cc3)nc2c1 | > 10 µM
6.17 µM | 4.37 µM | 9.12 µM | 10.2 µM | Cc1cc(N2CCC(NC3CCNC(c4ccccc4)C3)CC2)nc(C)n1 (stereo not given) | > 10 µM
6.17 µM | 4.47 µM | 5.37 µM | > 10 µM | COc1ccc(OC2CCN(C3CCCC3)CC2)c(C(=O)NCc2cccc3[nH]ccc23)c1 | > 10 µM
3.72 µM | 3.98 µM | 4.07 µM | 7.41 µM | OC1(c2ccc(Cl)cc2)CCN(C[C@@H]2CCCN3CCCC[C@H]23)CC1 | > 10 µM
3.24 µM | 1.82 µM | 2.19 µM | 3.09 µM | NCC1(O)CCN(c2ccnc3cc(F)c(Cl)cc23)CC1 | > 10 µM
1.78 µM | 2.19 µM | 2.29 µM | 5.37 µM | CCCN1CCC(Nc2cc(C)nc3ccccc23)CC1 | > 10 µM
3.02 µM | 3.09 µM | 2.95 µM | 5.89 µM | Cc1cccc(N2CCC(NCc3cc(C)cc(CN4CCN(C)CC4)c3C)CC2)c1 | > 10 µM
3.55 µM | 4.57 µM | 3.72 µM | > 10 µM | Cc1nc2ccc(CNC3CCN(c4ccc(F)c(F)c4)CC3)cc2[nH]1 | > 10 µM
3.31 µM | 2.82 µM | 3.55 µM | 9.55 µM | N[C@H]1CC[C@@H](NC2CCN(c3ccc(F)c(F)c3)CC2)CC1 | 7.76 µM
